Patent US20030104507A1, “Method for detection of ATP” (priority 2001, published 2003)

Tested on: ATPase activity endogenous to L929 cell lysate
Assay: Detergent inhibition of ATPase endogenous to L929 cell lysate (ATP remaining by luciferase luminescence, 22° C.)
Assay type: biochemical
Parameters: key to Relative ATPase Activity, slope det/slope lysate: slope with detergent / slope without; ≥1.0 = 100% activity, 0.5 = 50%
Protocol: Three separate detergents in each of four detergent classes were tested: anionic [SDS (Sodium dodecyl sulfate), Bioterge (an α olefin sulfate), and sodium deoxycholate], nonionic [TRITON X-100, BigCHAP (N,N-bis(3-D-Gluconamidopropyl)cholamide) and THESIT (polyethylene glycol 400 dodecyl ether, Fluka, #88315)], cationic [BDDABr (Benzyldimethyldodecylammonium bromide), CTAB (Cetyltrimethylammonium bromide), and DTAB (dodecyltrimethylammonium bromide)] and zwitterionic [CHAPS (3[(3-Cholamidopropyl)dimethylammonio]propanesulfonic acid), CHAPSO (3-([3-Cholamidopropyl]dimethylammonio)-2-hydroxy-1-propanesulfonate), and Sulfobetaine 3-10 ([…]-N,N-dimethyl-3-ammonio-1-propanesulfonate)]. Detergents were obtained from Sigma, Fluka and Aldrich.
L929 cells (ATCC CCL-1; 1.5×10^5 cells/ml) in F12/DMEM (Hyclone, SH30023) containing 10% horse serum (Hyclone, SH30074) were frozen and thawed for four cycles to create a cell lysate. Then 50 μl of stock detergent solutions [10%, 5.0%, 1.0%, and 0.5% (w/v)] were separately added to 450 μl cell lysate, creating a final detergent concentration in the cell lysate sample of 1.0%, 0.5%, 0.1%, and 0.05%, respectively (these percentage values are those used in Tables D and E herein below). Control samples contained either lysate only or 1.0 μM ATP in 15 mM HEPES buffer (pH 7.5). All samples were incubated at 22° C. (room temperature) for the duration of the experiment.
At various timepoints, 20 μl from each sample/detergent mixture was added to a 96-well luminometer plate in triplicate, and then 100 μl of a solution (“luciferase-luciferin” or “L/L reagent”) containing 25 mM HEPES buffer (pH 7.5), 40 μg luciferase enzyme LucPpe2m146 (Promega, E140), 100 μM luciferin (Promega), and 10 mM MgSO4 was added to each well. The L/L reagent was stored at 4° C. for the duration of the experiment and then allowed to reach ambient temperature just before assaying. After mixing the contents of the plate, light output was measured with a Dynex MLX microtiter plate luminometer (Chantilly, Va.), 0.5 second reads per well with the first measurement taken five minutes after the detergent solution was combined with the sample. The average relative light units and the timepoint at which it was measured (rlu; Table D) and percent of remaining luciferase activity at the timepoint (Table E) are reported; controls were run with each set of experimental conditions as indicated. The cationic and anionic detergents were assayed on one day with one set of controls. The zwitterionic and nonionic detergents were assayed on a separate day with a separate set of controls. The DTAB at 0.5% was assayed on both days (1 and 2).
The experiment was performed as detailed in Example 1. The average relative light unit values and the percent of ATP remaining values are listed below in Table F and G respectively.
The log of the percent of ATP remaining after original timepoint values from Table E and Table G were plotted on the y axis against time (in minutes) on the x axis. The slope of the line generated by these values in the presence of detergent was divided by the slope of the line generated by the values in the absence of detergent (lysate control) resulting in the Relative ATPase Activity values listed below in Table H.
A relative activity value of 1.0 or greater indicates 100% cellular ATPase activity at the concentration of detergent tested. A relative activity value of 0.5 indicates a two-fold (or 50%) decrease in the level of cellular ATPase activity at the concentration of detergent tested when compared to the ATPase activity level in the absence of the detergent. A relative activity value of 0.2 indicates a five-fold (or 80%) decrease in the level of cellular ATPase activity at the concentration of detergent tested when compared to the ATPase activity level in the absence of the detergent.

polyethylene glycol 400 dodecyl ether [THESIT]
Average Relative Light Unit Values (0.05% detergent, 5 min): 5632.96 rlu
Percent ATP Remaining (0.05% detergent, 5 min): 100%
Average Relative Light Unit Values (0.05% detergent, 75 min): 1601.09 rlu
Percent ATP Remaining (0.05% detergent, 75 min): 28.4%
Average Relative Light Unit Values (0.05% detergent, 169 min): 623.38 rlu
Percent ATP Remaining (0.05% detergent, 169 min): 11.1%
Average Relative Light Unit Values (0.05% detergent, 222 min): 211.67 rlu
Percent ATP Remaining (0.05% detergent, 222 min): 3.8%
Average Relative Light Unit Values (0.05% detergent, 260 min): 110.15 rlu
Percent ATP Remaining (0.05% detergent, 260 min): 2.0%
Relative ATPase Activity, slope det/slope lysate (0.05 percent detergent): 1.295
Slope (log percent ATP remaining vs time in minutes) (0.05 percent detergent): −0.0068
Average Relative Light Unit Values (0.1% detergent, 5 min): 6022.32 rlu
Percent ATP Remaining (0.1% detergent, 5 min): 100%
Average Relative Light Unit Values (0.1% detergent, 75 min): 2654.97 rlu
Percent ATP Remaining (0.1% detergent, 75 min): 44.1%
Average Relative Light Unit Values (0.1% detergent, 169 min): 1509.07 rlu
Percent ATP Remaining (0.1% detergent, 169 min): 25.1%
Average Relative Light Unit Values (0.1% detergent, 222 min): 755.94 rlu
Percent ATP Remaining (0.1% detergent, 222 min): 12.6%
Average Relative Light Unit Values (0.1% detergent, 260 min): 447.44 rlu
Percent ATP Remaining (0.1% detergent, 260 min): 7.4%
Relative ATPase Activity, slope det/slope lysate (0.10 percent detergent): 0.850
Slope (log percent ATP remaining vs time in minutes) (0.10 percent detergent): −0.0045
Average Relative Light Unit Values (0.5% detergent, 5 min): 6392.75 rlu
Percent ATP Remaining (0.5% detergent, 5 min): 100%
Average Relative Light Unit Values (0.5% detergent, 75 min): 2304.48 rlu
Percent ATP Remaining (0.5% detergent, 75 min): 36.0%
Average Relative Light Unit Values (0.5% detergent, 169 min): 1122.24 rlu
Percent ATP Remaining (0.5% detergent, 169 min): 17.6%
Average Relative Light Unit Values (0.5% detergent, 222 min): 487.28 rlu
Percent ATP Remaining (0.5% detergent, 222 min): 7.6%
Average Relative Light Unit Values (0.5% detergent, 260 min): 240.72 rlu
Percent ATP Remaining (0.5% detergent, 260 min): 3.8%
Relative ATPase Activity, slope det/slope lysate (0.50 percent detergent): 1.065
Slope (log percent ATP remaining vs time in minutes) (0.50 percent detergent): −0.0056
Average Relative Light Unit Values (1.0% detergent, 5 min): 6204.02 rlu
Percent ATP Remaining (1.0% detergent, 5 min): 100%
Average Relative Light Unit Values (1.0% detergent, 75 min): 1979.43 rlu
Percent ATP Remaining (1.0% detergent, 75 min): 31.9%
Average Relative Light Unit Values (1.0% detergent, 169 min): 968.14 rlu
Percent ATP Remaining (1.0% detergent, 169 min): 15.6%
Average Relative Light Unit Values (1.0% detergent, 222 min): 416.45 rlu
Percent ATP Remaining (1.0% detergent, 222 min): 6.7%
Average Relative Light Unit Values (1.0% detergent, 260 min): 210.78 rlu
Percent ATP Remaining (1.0% detergent, 260 min): 3.4%
Relative ATPase Activity, slope det/slope lysate (1.00 percent detergent): 1.096
Slope (log percent ATP remaining vs time in minutes) (1.00 percent detergent): −0.0058
